# Experimental data from ChEMBL document CHEMBL1201862, “PubChem BioAssay data set” (2004).
# Activity calls are given as the source filed them.
# Key:
# [1] = T. cruzi growth inhibition in host cells, dose response, cell-based, plate reader, dry powder, set 2 (AID 652275); format: functional
# [2] = target: T1, DNA repair protein RAD52 homolog (Homo sapiens, UniProt P43351); format: functional, biochemical
# T1 sequence (P43351 whole entry): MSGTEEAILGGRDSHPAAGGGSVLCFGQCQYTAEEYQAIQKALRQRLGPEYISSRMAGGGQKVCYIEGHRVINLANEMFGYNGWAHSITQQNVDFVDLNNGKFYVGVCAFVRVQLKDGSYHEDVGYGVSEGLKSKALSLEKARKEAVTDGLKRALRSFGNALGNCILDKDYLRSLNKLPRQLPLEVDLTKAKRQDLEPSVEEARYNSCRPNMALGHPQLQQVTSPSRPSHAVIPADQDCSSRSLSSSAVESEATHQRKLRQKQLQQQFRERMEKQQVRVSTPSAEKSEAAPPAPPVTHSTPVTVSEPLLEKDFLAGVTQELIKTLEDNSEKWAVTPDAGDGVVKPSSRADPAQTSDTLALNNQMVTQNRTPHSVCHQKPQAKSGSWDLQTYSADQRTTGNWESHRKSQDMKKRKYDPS
# [3] = IGROV1 ovarian cancer cell cytotoxicity, dose response, PAX8 inhibitor project, plate reader, dry powder samples (AID 743043); format: functional, cell-based; conditions: IGROV-1
# [4] = cytotoxicity in OVCAR8 ovarian cancer cells, dose response, PAX8 project, cell-based, plate reader, dry powder samples (AID 743197); format: functional; conditions: OVCAR-8
# Paired box protein Pax-8 = Paired box protein Pax-8 (Homo sapiens, UniProt Q06710); test: inhibitors of PAX8-driven TPO luciferase reporter, dose response, RMG-I cells, cherry-pick (AID 687027); format: functional, cell-based;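 note: luciferase reporter driven by Pax8 target thyroperoxidase promoter measured by SteadyGlo luminescence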
# Sequence of Paired box protein Pax-8 (Q06710 whole entry): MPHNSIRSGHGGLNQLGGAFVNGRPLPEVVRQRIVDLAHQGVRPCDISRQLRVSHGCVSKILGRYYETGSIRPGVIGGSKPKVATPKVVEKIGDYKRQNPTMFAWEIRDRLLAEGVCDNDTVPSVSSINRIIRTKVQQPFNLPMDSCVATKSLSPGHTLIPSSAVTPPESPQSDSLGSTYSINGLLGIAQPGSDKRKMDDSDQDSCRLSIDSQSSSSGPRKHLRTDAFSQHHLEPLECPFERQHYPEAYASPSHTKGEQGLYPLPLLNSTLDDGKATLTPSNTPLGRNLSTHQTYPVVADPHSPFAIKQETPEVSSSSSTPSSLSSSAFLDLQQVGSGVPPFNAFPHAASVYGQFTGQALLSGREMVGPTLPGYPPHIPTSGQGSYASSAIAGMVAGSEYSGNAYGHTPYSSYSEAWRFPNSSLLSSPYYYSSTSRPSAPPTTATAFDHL
# [5] = NIH:OVCAR-3 ovarian cancer cell cytotoxicity, dose response, PAX8 inhibitor project, plate reader, dry powder samples (AID 743044); format: functional, cell-based
# Protein Wnt-3a = Protein Wnt-3a (Mus musculus, UniProt P27467); test: Wnt3a-driven reporter signaling inhibition, dose response, selectivity assay for Gli-SUFU antagonist project, Wnt-LIGHT cells, luminescence (AID 651570); format: functional; conditions: read-out: IC50_Mean;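 note: Wnt-LIGHT reporter cells stimulated with conditioned medium from Wnt3a-producing cells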
# Sequence of Protein Wnt-3a (P27467 whole entry): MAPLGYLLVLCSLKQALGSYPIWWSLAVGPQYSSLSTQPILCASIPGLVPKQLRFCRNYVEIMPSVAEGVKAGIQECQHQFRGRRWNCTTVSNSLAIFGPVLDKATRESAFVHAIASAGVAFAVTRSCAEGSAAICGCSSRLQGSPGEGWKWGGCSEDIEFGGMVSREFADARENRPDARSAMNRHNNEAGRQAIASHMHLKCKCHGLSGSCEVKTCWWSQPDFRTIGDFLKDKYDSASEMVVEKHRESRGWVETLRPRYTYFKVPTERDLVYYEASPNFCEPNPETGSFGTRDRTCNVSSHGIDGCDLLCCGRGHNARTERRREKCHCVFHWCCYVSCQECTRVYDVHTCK
# [6] = target: Heat shock protein HSP 90-alpha (Homo sapiens, UniProt P07900); format: functional, organism-based
# [7] = HepG2 cell cytotoxicity, dose response, cytotoxicity control for Shn3 inhibitor project, CellTiter-Glo, cherry-picked (AID 624134); format: functional, cell-based
# [8] = Shn3 3'UTR reporter inhibitors, dose response, cell-based, Clone20 osteoblasts, firefly luciferase, cherry-picked (AID 624132); format: functional;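 note: firefly luciferase luminescence from reporter carrying the Shn3 3'UTR in osteoblasts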
# [9] = inhibitors of intracellular T. cruzi replication, confirmation, NIH3T3 host cells, beta-gal luminescence (AID 2044); format: functional, cell-based;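 note: intracellular parasites grown in NIH/3T3 mouse fibroblasts as host cells; luminescent beta-galactosidase reporter signal from transgenic T. cruzi replicating inside host cells; inhibitors lower the luminescence signal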
# [10] = miR-122 activators in hepatoma reporter cells, dose response, cell-based, Huh7 psiCHECK-miR122, Renilla luciferase, cherry-picked (AID 651956); format: functional;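 note: huh7 hepatoma cells stably carrying a psiCHECK-2 miR-122 sensor plasmid; renilla luciferase signal reporting endogenous miR-122 activity after 48 h compound exposure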
# [11] = target: T2, Heat shock factor protein 1 (Mus musculus, UniProt P38532); test: inhibition of MG132-induced HSE-luciferase signal, confirmation, cell-based, NIH3T3, luminescence, dose retest (AID 2382); format: functional;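 note: NIH3T3 fibroblasts with HSF1-driven luciferase reporter stressed by proteasome inhibitor MG132; luminescence from HSF1-driven luciferase expression after 8 hours of MG132 stress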
# T2 sequence (P38532 whole entry): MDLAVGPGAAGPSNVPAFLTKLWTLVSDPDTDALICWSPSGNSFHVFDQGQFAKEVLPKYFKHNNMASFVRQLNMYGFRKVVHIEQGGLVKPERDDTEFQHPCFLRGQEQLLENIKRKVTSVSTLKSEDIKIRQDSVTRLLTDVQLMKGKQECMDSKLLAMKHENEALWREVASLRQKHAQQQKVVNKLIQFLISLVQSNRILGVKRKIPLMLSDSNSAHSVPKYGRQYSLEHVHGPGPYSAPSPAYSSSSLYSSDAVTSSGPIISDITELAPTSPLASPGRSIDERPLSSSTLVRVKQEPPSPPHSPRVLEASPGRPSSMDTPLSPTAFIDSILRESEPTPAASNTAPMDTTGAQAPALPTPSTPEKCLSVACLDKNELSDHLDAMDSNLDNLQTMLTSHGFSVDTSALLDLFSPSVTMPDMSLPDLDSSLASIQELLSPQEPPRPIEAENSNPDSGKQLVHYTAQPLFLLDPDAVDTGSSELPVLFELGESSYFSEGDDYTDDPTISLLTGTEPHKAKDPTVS
# [12] = test system: Streptococcus sp. 'group A'; test: growth inhibition of control SK(-) GAS strain, dose response, counter-screen for streptokinase expression inhibitor project, luminescence, kanamycin, BacTiterGlo, confirmation (AID 1900); format: functional, organism-based
# cells [13] = format: functional, cell-based
# [14] = HEK293T cytotoxicity, dose response, cytotoxicity control for miR-122 modulator project, cell-based, activator set, cherry-pick (AID 720690); format: functional;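 note: HEK293T human cells scored for general mammalian cytotoxicity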
# Streptococcus = test: Group A Streptococcus viability loss, dose response, counter-screen for streptokinase expression inhibitor project, luminescence, BacTiterGlo (AID 1915); format: functional, organism-based;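 note: potency for reduction of bacterial viability or growth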
# [15] = control 3'UTR Renilla luciferase suppression, dose response, counter-screen for Shn3 inhibitor project, cell-based, Clone20-Shn3RL, cherry-picked (AID 624133); format: functional
# cells [16] = format: functional, cell-based; remark: listed apart in the source
# [17] = cytotoxicity toward NIH3T3 fibroblasts, dose response, counter-screen, cell-based, ATP luminescence, mouse fibroblasts (AID 2010); format: functional;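 note: cells exposed to compound for about 90 hours before reading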
# [18] = target: T3, Rac GTPase-activating protein 1 (Homo sapiens, UniProt Q9H0H5); test: MgcRacGAP GTPase-activating activity inhibitors, confirmation, biochemical, ADP Hunter fluorescence, primary and confirmatory (AID 624330); format: functional
# T3 sequence (Q9H0H5 whole entry): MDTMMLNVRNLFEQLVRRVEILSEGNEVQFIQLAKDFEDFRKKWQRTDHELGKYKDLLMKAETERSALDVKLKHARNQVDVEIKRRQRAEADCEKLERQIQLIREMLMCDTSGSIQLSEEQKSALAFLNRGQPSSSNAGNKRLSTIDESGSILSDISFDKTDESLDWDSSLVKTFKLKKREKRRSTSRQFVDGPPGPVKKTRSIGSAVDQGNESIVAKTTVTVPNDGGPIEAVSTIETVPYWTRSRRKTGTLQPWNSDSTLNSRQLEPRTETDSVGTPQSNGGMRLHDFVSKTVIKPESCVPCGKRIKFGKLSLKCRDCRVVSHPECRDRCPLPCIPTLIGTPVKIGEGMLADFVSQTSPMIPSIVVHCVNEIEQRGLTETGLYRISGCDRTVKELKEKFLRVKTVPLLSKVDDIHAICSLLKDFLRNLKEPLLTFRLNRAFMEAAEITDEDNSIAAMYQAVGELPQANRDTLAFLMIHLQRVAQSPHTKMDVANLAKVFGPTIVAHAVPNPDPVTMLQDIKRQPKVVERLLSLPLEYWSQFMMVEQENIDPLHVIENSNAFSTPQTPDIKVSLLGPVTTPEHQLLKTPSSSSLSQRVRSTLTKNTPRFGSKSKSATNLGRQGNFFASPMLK
# [19] = HEK293T cytotoxicity, dose response, cytotoxicity control for miR-122 modulator project, cell-based, inhibitor set, cherry-pick, set 2 (AID 720697); format: functional
# [20] = non-specific cell cytotoxicity, dose response, cytotoxicity control for PAX8 inhibitor project, plate reader, dry powder samples (AID 743021); format: functional, cell-based
# [21] = A549 cell cytotoxicity, dose response, cytotoxicity control, plate reader, cherry-pick, antagonist series (AID 743412); format: functional, cell-based
# [22] = microbe, parasite or virus in culture; format: functional; conditions: Mycobacterium tuberculosis
# [23] = inhibitors of HIV Env-driven cell fusion, dose response, cherry-pick (AID 652057); format: functional, cell-based
# [24] = ZM109 Env clade C HIV-1 fusion inhibitors, dose response, HeLa effector, CEM target cells, luciferase, cherry-pick (AID 652058); format: functional, cell-based
# [25] = CEM21 lymphoblast cell cytotoxicity, dose response, cytotoxicity control for viral fusion inhibitor project, CellTiter-Glo luminescence, cherry-picked (AID 652042); format: functional, cell-based;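 note: potency for signal decrease meaning cytotoxicity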
# [26] = off-target signal loss in HeLa-CEM21 co-culture – HeLa F-luc CTL cells, cherry-picked, counter-screen for HIV-1 Env fusion inhibitor project, dose response (AID 652040); format: functional, cell-based;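 note: potency for signal decrease marking cytotoxic or nonspecific inhibition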
# [27] = inhibitors of clade B AD8 Env fusion, dose response, cell-based, cherry-pick (AID 652062); format: functional;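 note: luciferase signal from cell-cell fusion driven by HIV-1 clade B AD8 Env; potency is for inhibitors of fusion seen as a drop in luminescence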
# [28] = target: Glucose-6-phosphate 1-dehydrogenase (Homo sapiens, UniProt P11413); test: human G6PD enzyme inhibitors, dose response, selectivity assay for P. falciparum G6PD inhibitor project, biochemical, fluorescence (AID 504792); format: functional
# Sequence of Glucose-6-phosphate 1-dehydrogenase (P11413 whole entry): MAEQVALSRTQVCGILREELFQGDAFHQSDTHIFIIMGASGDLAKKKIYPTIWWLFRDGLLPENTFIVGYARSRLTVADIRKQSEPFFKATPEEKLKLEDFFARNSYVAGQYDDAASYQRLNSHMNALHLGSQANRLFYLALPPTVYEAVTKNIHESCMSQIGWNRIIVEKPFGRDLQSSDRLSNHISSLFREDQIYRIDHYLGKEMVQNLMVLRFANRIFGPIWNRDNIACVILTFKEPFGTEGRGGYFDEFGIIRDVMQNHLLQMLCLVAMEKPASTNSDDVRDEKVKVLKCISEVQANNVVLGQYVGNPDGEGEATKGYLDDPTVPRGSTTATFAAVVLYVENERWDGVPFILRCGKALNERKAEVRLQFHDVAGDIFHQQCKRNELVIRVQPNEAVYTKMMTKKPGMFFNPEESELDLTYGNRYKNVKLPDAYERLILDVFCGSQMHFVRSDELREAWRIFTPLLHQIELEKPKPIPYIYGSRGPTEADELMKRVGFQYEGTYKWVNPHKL
# HeLa = test: HeLa cell cytotoxicity, dose response, cytotoxicity control, ATP luminescence, cherry-pick samples (AID 687004); format: functional, cell-based; conditions: Homo sapiens
# [29] = target: SWI/SNF-related matrix-associated actin-dependent regulator of chromatin subfamily A member 2 (Homo sapiens, UniProt P51531); test: Luminescence-based cell-based high throughput dose response assay to identify activators of the function of SWI/SNF related, matrix associated, actin dependent regulator of chromatin, subfamily a, member 2 (SMARCA2, BRM).; format: functional
# Sequence of SWI/SNF-related matrix-associated actin-dependent regulator of chromatin subfamily A member 2 (P51531 whole entry): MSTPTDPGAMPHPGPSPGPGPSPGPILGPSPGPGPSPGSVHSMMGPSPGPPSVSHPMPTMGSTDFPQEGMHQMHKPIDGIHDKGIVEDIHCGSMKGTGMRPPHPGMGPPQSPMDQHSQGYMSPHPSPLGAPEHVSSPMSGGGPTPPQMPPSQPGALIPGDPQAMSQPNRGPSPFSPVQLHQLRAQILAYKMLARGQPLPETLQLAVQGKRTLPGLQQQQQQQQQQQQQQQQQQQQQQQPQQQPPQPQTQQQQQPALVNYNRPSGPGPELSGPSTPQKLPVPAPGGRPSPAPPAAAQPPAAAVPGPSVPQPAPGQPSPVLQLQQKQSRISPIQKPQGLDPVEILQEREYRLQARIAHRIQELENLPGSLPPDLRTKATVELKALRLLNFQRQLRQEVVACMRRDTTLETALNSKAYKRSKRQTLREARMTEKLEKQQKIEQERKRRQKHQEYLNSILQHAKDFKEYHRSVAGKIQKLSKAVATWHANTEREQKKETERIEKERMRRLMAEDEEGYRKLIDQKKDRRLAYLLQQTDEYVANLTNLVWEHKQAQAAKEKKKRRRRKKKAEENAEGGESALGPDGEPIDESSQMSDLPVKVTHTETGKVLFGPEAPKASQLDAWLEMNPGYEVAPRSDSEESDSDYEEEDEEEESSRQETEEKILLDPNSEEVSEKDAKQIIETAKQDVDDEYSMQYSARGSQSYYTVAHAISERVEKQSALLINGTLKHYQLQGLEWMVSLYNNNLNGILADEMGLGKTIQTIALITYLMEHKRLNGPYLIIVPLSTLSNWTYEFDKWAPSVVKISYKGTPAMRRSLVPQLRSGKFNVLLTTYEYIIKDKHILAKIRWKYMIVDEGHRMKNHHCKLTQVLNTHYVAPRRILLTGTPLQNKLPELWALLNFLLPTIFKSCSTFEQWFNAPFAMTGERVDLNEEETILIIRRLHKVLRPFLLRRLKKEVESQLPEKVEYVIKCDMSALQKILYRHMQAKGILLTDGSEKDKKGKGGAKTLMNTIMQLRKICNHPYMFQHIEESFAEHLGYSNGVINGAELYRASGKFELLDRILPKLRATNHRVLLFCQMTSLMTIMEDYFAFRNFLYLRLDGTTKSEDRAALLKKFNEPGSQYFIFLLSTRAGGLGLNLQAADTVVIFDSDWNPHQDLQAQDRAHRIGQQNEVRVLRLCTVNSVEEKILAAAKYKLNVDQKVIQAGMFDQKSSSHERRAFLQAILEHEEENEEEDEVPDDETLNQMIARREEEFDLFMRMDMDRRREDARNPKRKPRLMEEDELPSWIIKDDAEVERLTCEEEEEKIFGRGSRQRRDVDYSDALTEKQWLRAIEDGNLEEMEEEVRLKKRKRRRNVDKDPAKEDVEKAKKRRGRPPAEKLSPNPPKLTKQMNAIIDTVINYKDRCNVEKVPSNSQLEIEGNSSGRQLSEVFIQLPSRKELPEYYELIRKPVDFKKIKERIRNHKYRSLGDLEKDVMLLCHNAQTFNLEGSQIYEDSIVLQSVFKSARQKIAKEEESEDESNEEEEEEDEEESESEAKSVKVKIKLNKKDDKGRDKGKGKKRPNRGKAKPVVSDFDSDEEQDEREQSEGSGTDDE
# [30] = Counterscreen for activators of the function of SWI/SNF related, matrix associated, actin dependent regulator of chromatin, subfamily a, member 2 (SMARCA2, BRM): Luminescence-based cell-based high throughput dose response assay to identify non-selective compounds using the VP16 reporter assay.; format: functional
# [31] = target: T4, Carboxy-terminal domain RNA polymerase II polypeptide A small phosphatase 1 (Homo sapiens, UniProt Q9GZU7); test: inhibitors of CTDSP1, concentration-response testing, biochemical assay, absorbance-based, actives from ultra-high-throughput screening (AID 540297); format: functional
# T4 sequence (Q9GZU7 whole entry): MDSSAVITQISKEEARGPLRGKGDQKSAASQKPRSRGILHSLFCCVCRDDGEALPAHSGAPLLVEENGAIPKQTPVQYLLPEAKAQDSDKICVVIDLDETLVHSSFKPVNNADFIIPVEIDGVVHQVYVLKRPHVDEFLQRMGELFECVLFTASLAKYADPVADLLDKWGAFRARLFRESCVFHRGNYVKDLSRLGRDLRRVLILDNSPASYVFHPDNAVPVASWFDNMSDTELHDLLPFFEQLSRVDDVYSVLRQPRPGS
smiles,measurement,setting,value
CC(C)N1CC2(CN(Cc3ccc(Cl)cc3)C2)Oc2c(NC(=O)c3ccncc3)cccc2C1=O,AC50,[1],0.136 µM (active)
Cc1ccc(-c2csc(NC(=O)C[n+]3cc(-c4ccccc4)n4c3CCC4)n2)cc1,AC50,[2],21.1 µM (active)
Cc1cccc(S(=O)(=O)N2CCCCN3[C@H](CO)[C@H](c4ccc(C#C[C@H](C)O)cc4)[C@H]3C2)c1,AC50,[3],17.6 µM (active)
same,AC50,[4],> 70 µM (inactive)
same,AC50,Paired box protein Pax-8,7.18 µM (active)
same,AC50,[5],30.4 µM (active)
Cc1cc(NC(=O)CSc2nc3c4ccccc4nc-3c(O)n2-c2ccccc2F)no1,IC50,Protein Wnt-3a,6.29 µM (active)
Cc1ccc(NC(=O)/C=C/c2ccco2)cc1S(=O)(=O)N1CCCCCC1,IC50,Protein Wnt-3a,17.7 µM (active)
CC(=O)NC(c1ccc(C)cc1)c1cc(Cl)c2cccnc2c1O (stereo unspecified),AC50,[6],3.52 µM (active)
same,AC50,[7],4.67 µM (active)
same,AC50,[8],2.12 µM (active)
same,EC50,[9],0.655 µM (active)
same,AC50,[10],37.4 µM (active)
same,EC50,[11],0.911 µM (active)
same,EC50,[12],1.38 µM (active)
same,EC50,cells [13],> 350 µM (not active)
same,AC50,[14],2.8 µM (active)
same,EC50,Streptococcus,6.97 µM (active)
same,AC50,[15],3.29 µM (active)
same,EC50,cells [16],14.7 µM (active)
same,EC50,[17],0.763 µM (active)
Cc1nc2cc(Oc3nc(NCCN(C)C)nc4ccsc34)ccc2s1,AC50,[2],21 µM (active)
O=C(CN1CCCCC1)Nc1ccc(N2CCCCCC2)cc1,AC50,[2],22.8 µM (active)
same,IC50,[18],126 µM (active)
COCC(=O)Nc1ccc2c(c1)C(=O)N(C)[C@@H]1CC[C@H](CC(=O)N3CCc4ccccc4C3)O[C@H]1CO2,AC50,[14],37 µM (active)
same,AC50,[19],9.29 µM (active)
C[C@@H]1CCCCO[C@H](CN(C)Cc2ccc(Cl)c(Cl)c2)[C@@H](C)CN([C@@H](C)CO)C(=O)c2cc(NC(=O)c3ccccc3)ccc2O1,AC50,[3],47.5 µM (active)
same,AC50,[4],60 µM (active)
same,AC50,Paired box protein Pax-8,8.87 µM (active)
same,AC50,[5],43.1 µM (active)
same,AC50,[20],52.7 µM (active)
CC(C)(C)[S+]([O-])N1Cc2cc(C(=O)NCc3ccc4c(c3)OCO4)nc(-c3cccc(-c4cccc(F)c4)c3)c2[C@H]1CCO (stereo partly specified),AC50,[1],0.394 µM (active)
Cc1ccc(-n2cc(CN(C)Cc3nccn3C)c(-c3cccc(C)c3)n2)cc1,AC50,[21],> 52 µM (inactive)
same,CC50,[22],> 40 µM (active)
O=C1[C@H](Cc2ccccc2)NCCCC[C@H](c2ccco2)N1Cc1ccccc1,AC50,[23],4.38 µM (active)
same,AC50,[24],10.4 µM (active)
same,AC50,[25],39.9 µM (active)
same,AC50,[26],7.61 µM (active)
same,AC50,[27],35.3 µM (active)
c1ccc(C[n+]2cccc(-c3ccccc3)c2)cc1,IC50,Protein Wnt-3a,44.8 µM (inactive)
CC(C)N1C(=O)c2cccc(NC(=O)c3ccncc3)c2O[C@H](CN(C)Cc2ccc(Cl)cc2)[C@H]1C,AC50,[1],0.00096 µM (active)
COc1cc(-c2cc(OC)c(O)c(OC)c2)cc(OC)c1O,IC50,[18],88.4 µM (active)
same,IC50,[28],> 80 µM (inactive)
same,AC50,[25],27.4 µM (active)
CCNC(=O)Nc1ccc2c(c1)C(=O)N(C)[C@H]1CC[C@H](CC(=O)Nc3ccccc3F)O[C@@H]1CO2,AC50,HeLa,0.264 µM (active)
same,AC50,[19],2.11 µM (active)
N#C[C@@H]1[C@H](c2ccc(-c3ccccc3F)cc2)[C@@H](CO)N1C(=O)c1ccccn1,AC50,[23],62.6 µM (active)
same,AC50,[25],67 µM (active)
O=C1NC2c3c(Cl)sc(Cl)c3C(=O)C2O1 (stereo unspecified),EC50,[29],> 91 µM (inactive)
same,EC50,[30],> 91 µM (inactive)
same,IC50,[31],3.75 µM (active)
